Measurements published in ChEMBL document CHEMBL1201862, “PubChem BioAssay data set” (2004).
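Cells were grown in 96-well plates and exposed to each compound for 48 hours at five concentrations; endpoints were interpolated linearly between bracketing concentrations, or set to the highest concentration if not reached. GI50 marks 50% less growth.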 Calls of active or inactive are those of the source. No stated cut-off is given here; in the data, active = GI50 up to about 1.1 µM and inactive = higher.

What was measured:
Assay in all cases: inhibition of tumour cell growth, NCI panel, 48 h
ACHN = tested on: ACHN
COLO 205 = tested on: COLO 205
HCT-116 = tested on: HCT-116
HCT-15 = tested on: HCT-15
HT-29 = tested on: HT-29
IGROV-1 = tested on: IGROV-1
K562 = tested on: K562
KM12 = tested on: KM12
NCI-H23 = tested on: NCI-H23
OVCAR-4 = tested on: OVCAR-4
OVCAR-5 = tested on: OVCAR-5
OVCAR-8 = tested on: OVCAR-8
SK-MEL-2 = tested on: SK-MEL-2
SNB-19 = tested on: SNB-19
TK-10 = tested on: TK-10
U-251 = tested on: U-251
UACC-62 = tested on: UACC-62
HCC 2998 = tested on: HCC 2998
SF-539 = tested on: SF-539
RXF 393 = tested on: RXF 393

Q: What does the source list for `CCOC(=O)CSc1c(C(=O)OCC)c(=O)n(-c2ccccc2)c(=S)n1-c1ccccc1`?
A: GI50 (ACHN): 36 µM (inactive); GI50 (COLO 205): 65.8 µM (inactive); GI50 (HCT-116): 45.7 µM (inactive); GI50 (HCT-15): 21.5 µM; GI50 (HT-29): 54.3 µM (inactive); GI50 (IGROV-1): 20.5 µM (inactive); GI50 (K562): 7.53 µM (inactive); GI50 (KM12): 59.2 µM (inactive); GI50 (NCI-H23): 22.7 µM (inactive); GI50 (OVCAR-4): 53.5 µM (inactive); GI50 (OVCAR-5): > 100 µM (inactive); GI50 (OVCAR-8): 41 µM (inactive); GI50 (SK-MEL-2): 83 µM (inactive); GI50 (SNB-19): 34.7 µM (inactive); GI50 (TK-10): > 100 µM (inactive); GI50 (U-251): 13.3 µM (inactive); GI50 (UACC-62): 36.3 µM (inactive)

Q: How did the GI50 (ACHN) turn out when `CCN(CC)CCCC(C)Nc1cc(-c2ccccc2)nc2cc(OC)ccc12` (stereo not drawn) was run?
A: The GI50 was 6.53 µM (inactive).

Q: And the GI50 (COLO 205)?
A: Its GI50 is 2.91 µM (inactive).

Q: And the GI50 (HCC 2998)?
A: The GI50 was 1.15 µM (inactive).

Q: What about the GI50 (HCT-116) of the same compound?
A: The GI50 was 2.84 µM (inactive).

Q: And the GI50 (HT-29)?
A: The GI50 was 1.94 µM (inactive).

Q: What about the GI50 (IGROV-1) of the same compound?
A: The GI50 was 13.2 µM (inactive).

Q: And the GI50 (K562)?
A: Its GI50 is 0.8 µM (active).

Q: And the GI50 (KM12)?
A: The GI50 was 5.33 µM (inactive).

Q: And the GI50 (NCI-H23)?
A: The GI50 was 15.4 µM (inactive).

Q: What about the GI50 (OVCAR-4) of the same compound?
A: Its GI50 is 4.88 µM (inactive).

Q: And the GI50 (OVCAR-5)?
A: Its GI50 is 2.48 µM (inactive).

Q: What about the GI50 (SF-539) of the same compound?
A: The GI50 was 3.05 µM (inactive).

Q: And the GI50 (SK-MEL-2)?
A: Its GI50 is 12.6 µM (inactive).

Q: And the GI50 (SNB-19)?
A: Its GI50 is > 10 µM (inactive).

Q: And the GI50 (U-251)?
A: Its GI50 is 4.22 µM (inactive).

Q: And the GI50 (UACC-62)?
A: The GI50 was 17.6 µM (inactive).

Q: Which results are given for `CCOC(=O)Nc1ccc(S(=O)(=O)NCCCl)cc1.CCOC(=O)Nc1ccc(S(=O)(=O)NCCCl)cc1.O=C(O)c1ccc(/N=N/Cl)cc1O`?
A: GI50 (ACHN): > 100 µM (inactive); GI50 (COLO 205): > 100 µM (inactive); GI50 (HCC 2998): > 100 µM (inactive); GI50 (HCT-15): > 100 µM; GI50 (HT-29): > 100 µM (inactive); GI50 (IGROV-1): > 100 µM (inactive); GI50 (K562): > 100 µM (inactive); GI50 (KM12): > 100 µM (inactive); GI50 (NCI-H23): > 100 µM (inactive); GI50 (OVCAR-4): > 100 µM (inactive); GI50 (OVCAR-5): > 100 µM (inactive); GI50 (OVCAR-8): > 100 µM (inactive); GI50 (SF-539): > 100 µM (inactive); GI50 (SK-MEL-2): > 100 µM (inactive); GI50 (TK-10): > 100 µM (inactive); GI50 (U-251): > 100 µM (inactive); GI50 (UACC-62): > 100 µM (inactive)

Q: How did the GI50 (ACHN) turn out when `COc1ccc(CCCC(=O)O)c(C)c1` was run?
A: The GI50 was 35.1 µM (inactive).

Q: What about the GI50 (HCT-116) of the same compound?
A: Its GI50 is > 100 µM (inactive).

Q: And the GI50 (HCT-15)?
A: The GI50 was > 100 µM.

Q: What about the GI50 (HT-29) of the same compound?
A: The GI50 was > 100 µM (inactive).

Q: What about the GI50 (IGROV-1) of the same compound?
A: Its GI50 is 45.1 µM (inactive).

Q: What about the GI50 (K562) of the same compound?
A: The GI50 was 39.3 µM (inactive).

Q: And the GI50 (KM12)?
A: The GI50 was 36.4 µM (inactive).

Q: What about the GI50 (NCI-H23) of the same compound?
A: Its GI50 is 53.3 µM (inactive).

Q: And the GI50 (OVCAR-4)?
A: Its GI50 is 48.2 µM (inactive).

Q: What about the GI50 (OVCAR-5) of the same compound?
A: The GI50 was > 100 µM (inactive).

Q: And the GI50 (OVCAR-8)?
A: The GI50 was 74.6 µM (inactive).

Q: And the GI50 (RXF 393)?
A: Its GI50 is 37.1 µM (inactive).

Q: What about the GI50 (SK-MEL-2) of the same compound?
A: Its GI50 is 39 µM (inactive).

Q: And the GI50 (SNB-19)?
A: Its GI50 is 40.1 µM (inactive).

Q: And the GI50 (TK-10)?
A: The GI50 was 81.8 µM (inactive).

Q: And the GI50 (U-251)?
A: Its GI50 is 20.8 µM (inactive).

Q: And the GI50 (UACC-62)?
A: Its GI50 is 36.8 µM (inactive).

Q: What does the source list for `N#Cc1c(-c2ccccc2)cn(C(=O)c2ccccc2)c1N`?
A: GI50 (ACHN): > 100 µM (inactive); GI50 (COLO 205): > 100 µM (inactive); GI50 (HCC 2998): < 0.01 µM (active); GI50 (HCT-116): > 100 µM (inactive); GI50 (HCT-15): > 100 µM; GI50 (HT-29): > 100 µM (inactive); GI50 (IGROV-1): > 100 µM (inactive); GI50 (K562): > 100 µM (inactive); GI50 (KM12): > 100 µM (inactive); GI50 (NCI-H23): > 100 µM (inactive); GI50 (OVCAR-4): 21.3 µM (inactive); GI50 (OVCAR-5): > 100 µM (inactive); GI50 (OVCAR-8): > 100 µM (inactive); GI50 (SK-MEL-2): > 100 µM (inactive); GI50 (SNB-19): > 100 µM (inactive); GI50 (TK-10): > 100 µM (inactive); GI50 (U-251): > 100 µM (inactive); GI50 (UACC-62): > 100 µM (inactive)

Q: With `CC1(C)CCc2c(ccc(C(=O)/C=C/c3ccc(O)cc3)c2O)O1` [DORSMANNIN A] as the compound, how does the GI50 (ACHN) read?
A: Its GI50 is 10.7 µM (inactive).

Q: And the GI50 (COLO 205)?
A: The GI50 was 10.9 µM (inactive).

Q: What about the GI50 (HCT-116) of the same compound?
A: The GI50 was 10.3 µM (inactive).

Q: And the GI50 (HCT-15)?
A: Its GI50 is 10.8 µM.

Q: And the GI50 (HT-29)?
A: The GI50 was 11.9 µM (inactive).

Q: And the GI50 (IGROV-1)?
A: Its GI50 is 9.1 µM (inactive).

Q: What about the GI50 (K562) of the same compound?
A: Its GI50 is 27.8 µM (inactive).

Q: And the GI50 (NCI-H23)?
A: Its GI50 is 12.5 µM (inactive).

Q: And the GI50 (OVCAR-4)?
A: The GI50 was 9.48 µM (inactive).

Q: And the GI50 (OVCAR-5)?
A: Its GI50 is 11.6 µM (inactive).

Q: What about the GI50 (OVCAR-8) of the same compound?
A: Its GI50 is 12 µM (inactive).

Q: What about the GI50 (RXF 393) of the same compound?
A: The GI50 was 10.6 µM (inactive).

Q: And the GI50 (SF-539)?
A: The GI50 was 11.9 µM (inactive).

Q: What about the GI50 (SK-MEL-2) of the same compound?
A: Its GI50 is 11.9 µM (inactive).

Q: What about the GI50 (SNB-19) of the same compound?
A: Its GI50 is 13.9 µM (inactive).

Q: What about the GI50 (TK-10) of the same compound?
A: Its GI50 is 10.3 µM (inactive).

Q: What about the GI50 (U-251) of the same compound?
A: The GI50 was 10.4 µM (inactive).

Q: And the GI50 (UACC-62)?
A: Its GI50 is 10 µM (inactive).
